Patent US20240383875A1, “Benzimidazole Pyridine Derivatives” (Hoffmann-La Roche Inc., priority 2022, published 2024)

Experiments:
Format in all cases: biochemical
SIK3 = SIK3 (Homo sapiens, UniProt Q9Y2K2); assay: Enzymatic activity assay SIK3, RapidFire mass spectrometry (phosphorylation of CHK-peptide); details: RapidFire MS, inhibition of SIK3; read-out: SIK3 RF IC50
How it was run: (§1)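 Human SIK1/2/3, 5/0.5/1.5 nM; 12.5 mM HEPES pH 7.0, 10 mM Mg acetate, 0.005% BSA. 30 min cpd pre-inc, + CHK-peptide (10 μM soln) + ATP (100 μM soln), 45 min RT. Formic acid stop; RF-MS phospho ratio; IC50.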

SIK1 = SIK1 (Homo sapiens, UniProt P57059); assay: Enzymatic activity assay SIK1, RapidFire mass spectrometry (phosphorylation of CHK-peptide); details: RapidFire MS, inhibition of SIK1; read-out: SIK1 RF IC50
Chain of SIK1 (P57059 whole entry): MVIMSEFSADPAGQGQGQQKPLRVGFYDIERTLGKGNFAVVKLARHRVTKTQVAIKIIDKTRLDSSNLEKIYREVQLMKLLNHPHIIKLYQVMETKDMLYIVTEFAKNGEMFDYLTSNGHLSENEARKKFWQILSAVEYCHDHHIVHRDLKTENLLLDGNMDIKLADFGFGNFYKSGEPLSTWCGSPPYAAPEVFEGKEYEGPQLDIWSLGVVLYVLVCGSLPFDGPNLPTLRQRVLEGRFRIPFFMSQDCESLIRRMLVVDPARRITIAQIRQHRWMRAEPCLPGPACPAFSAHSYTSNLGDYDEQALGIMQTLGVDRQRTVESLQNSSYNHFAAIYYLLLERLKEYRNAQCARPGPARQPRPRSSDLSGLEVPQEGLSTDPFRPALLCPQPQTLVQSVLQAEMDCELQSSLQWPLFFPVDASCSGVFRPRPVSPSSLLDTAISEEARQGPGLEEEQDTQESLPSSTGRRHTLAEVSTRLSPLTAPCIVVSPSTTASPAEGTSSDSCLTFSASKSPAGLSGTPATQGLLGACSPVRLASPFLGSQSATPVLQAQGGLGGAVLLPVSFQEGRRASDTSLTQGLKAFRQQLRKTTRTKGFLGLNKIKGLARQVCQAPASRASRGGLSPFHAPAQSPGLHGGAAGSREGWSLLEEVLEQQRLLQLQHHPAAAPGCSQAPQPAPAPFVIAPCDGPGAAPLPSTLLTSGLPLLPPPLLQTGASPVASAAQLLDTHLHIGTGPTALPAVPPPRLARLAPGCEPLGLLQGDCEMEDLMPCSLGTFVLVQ
How it was run: as §1

SIK2 = SIK2 (Homo sapiens, UniProt Q9H0K1); assay: Enzymatic activity assay SIK2, RapidFire mass spectrometry (phosphorylation of CHK-peptide); details: RapidFire MS, inhibition of SIK2; read-out: SIK2 RF IC50
Chain of SIK2 (Q9H0K1 whole entry): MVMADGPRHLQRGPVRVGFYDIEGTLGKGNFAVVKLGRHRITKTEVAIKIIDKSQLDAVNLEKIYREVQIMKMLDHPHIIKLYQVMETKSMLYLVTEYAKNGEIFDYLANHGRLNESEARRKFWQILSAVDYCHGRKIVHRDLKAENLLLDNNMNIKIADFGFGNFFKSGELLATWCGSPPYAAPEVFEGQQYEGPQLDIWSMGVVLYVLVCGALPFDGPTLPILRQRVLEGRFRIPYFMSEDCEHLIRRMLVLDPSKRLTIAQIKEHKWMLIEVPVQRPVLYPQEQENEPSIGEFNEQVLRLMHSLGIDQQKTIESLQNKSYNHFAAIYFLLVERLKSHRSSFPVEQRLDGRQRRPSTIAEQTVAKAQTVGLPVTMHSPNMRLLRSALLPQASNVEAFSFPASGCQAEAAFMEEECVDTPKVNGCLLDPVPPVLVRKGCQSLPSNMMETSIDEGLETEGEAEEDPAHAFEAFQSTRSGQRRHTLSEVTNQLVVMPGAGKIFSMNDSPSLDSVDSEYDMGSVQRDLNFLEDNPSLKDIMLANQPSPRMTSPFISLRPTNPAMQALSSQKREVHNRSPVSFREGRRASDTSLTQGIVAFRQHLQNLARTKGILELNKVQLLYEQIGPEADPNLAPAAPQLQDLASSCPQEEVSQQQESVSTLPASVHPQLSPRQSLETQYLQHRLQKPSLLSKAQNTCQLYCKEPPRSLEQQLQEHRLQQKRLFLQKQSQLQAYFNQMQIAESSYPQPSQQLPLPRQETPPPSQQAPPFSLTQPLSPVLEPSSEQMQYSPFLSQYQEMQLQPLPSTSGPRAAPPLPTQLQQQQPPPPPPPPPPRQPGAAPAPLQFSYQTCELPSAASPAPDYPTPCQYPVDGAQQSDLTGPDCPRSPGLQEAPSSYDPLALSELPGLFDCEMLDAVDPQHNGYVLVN
How it was run: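 Read-out is the summed phospho-species fraction of CHK-peptide by RapidFire mass spectrometry, normalized between DMSO and 1 μM YKL-05-099. The reaction used 0.5 nM SIK2, 100 μM ATP and 10 μM peptide solutions in HEPES pH 7.0/10 mM magnesium acetate for 45 min at ambient temperature.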

Chain of SIK3 (Q9Y2K2 whole entry): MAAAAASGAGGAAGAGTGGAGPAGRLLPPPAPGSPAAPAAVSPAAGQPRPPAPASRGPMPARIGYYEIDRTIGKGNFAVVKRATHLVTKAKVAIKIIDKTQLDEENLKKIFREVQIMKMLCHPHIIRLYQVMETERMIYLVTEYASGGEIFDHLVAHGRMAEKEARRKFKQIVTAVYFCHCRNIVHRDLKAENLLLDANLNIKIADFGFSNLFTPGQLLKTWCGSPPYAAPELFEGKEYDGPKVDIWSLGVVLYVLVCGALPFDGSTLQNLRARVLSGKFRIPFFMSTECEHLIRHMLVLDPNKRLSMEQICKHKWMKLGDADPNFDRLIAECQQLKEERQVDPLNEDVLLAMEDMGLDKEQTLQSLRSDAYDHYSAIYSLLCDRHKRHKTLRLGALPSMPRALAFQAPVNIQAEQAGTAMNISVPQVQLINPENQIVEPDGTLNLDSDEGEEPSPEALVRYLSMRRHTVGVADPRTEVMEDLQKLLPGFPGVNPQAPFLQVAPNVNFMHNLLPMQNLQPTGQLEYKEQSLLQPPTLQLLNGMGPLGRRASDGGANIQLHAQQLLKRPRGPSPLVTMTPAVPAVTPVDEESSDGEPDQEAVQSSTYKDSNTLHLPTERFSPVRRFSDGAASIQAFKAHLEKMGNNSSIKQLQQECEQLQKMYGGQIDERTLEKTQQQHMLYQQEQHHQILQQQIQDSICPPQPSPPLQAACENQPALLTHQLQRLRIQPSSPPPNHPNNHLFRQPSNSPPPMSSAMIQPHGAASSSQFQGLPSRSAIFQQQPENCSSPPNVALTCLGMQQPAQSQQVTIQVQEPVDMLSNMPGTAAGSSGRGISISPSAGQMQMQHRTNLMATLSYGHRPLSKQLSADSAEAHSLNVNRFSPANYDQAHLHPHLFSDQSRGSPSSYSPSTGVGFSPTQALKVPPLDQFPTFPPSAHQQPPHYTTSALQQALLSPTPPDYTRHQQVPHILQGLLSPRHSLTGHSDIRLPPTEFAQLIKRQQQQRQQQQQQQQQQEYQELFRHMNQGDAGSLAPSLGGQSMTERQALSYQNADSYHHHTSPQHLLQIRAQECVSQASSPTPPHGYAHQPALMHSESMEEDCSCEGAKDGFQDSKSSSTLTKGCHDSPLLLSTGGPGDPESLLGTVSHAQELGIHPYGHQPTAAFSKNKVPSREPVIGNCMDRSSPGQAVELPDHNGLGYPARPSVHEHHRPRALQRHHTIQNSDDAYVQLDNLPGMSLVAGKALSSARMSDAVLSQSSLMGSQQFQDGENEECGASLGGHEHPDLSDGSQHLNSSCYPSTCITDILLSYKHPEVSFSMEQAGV

Row | Structure (SMILES) | IC50 (SIK3) | IC50 (SIK1) | IC50 (SIK2)
1 | Cc1ccc(Nc2ccc3c(c2)ncn3-c2ccc(C(C)O)c(-c3cncnc3NC3CC3)n2)nn1 (stereo not drawn) [Example 163, 1-[2-[4-(Cyclopropylamino)pyrimidin-5-yl]-6-[5-[(6-methylpyridazin-3-yl)amino]benzimidazol-1-yl]-3-pyridyl]ethanol] | 181 nM | > 30000 nM | 964 nM
2 | CNC(=O)c1cc(C)n(-c2nc(-n3cnc4cc(Nc5ccc(C)nn5)ccc43)ccc2C(C)O)n1 (stereo not drawn) [Example 152, 1-[3-(1-Hydroxyethyl)-6-[5-[(6-methylpyridazin-3-yl)amino]benzimidazol-1-yl]-2-pyridyl]-N,5-dimethyl-pyrazole-3-carboxamide] | 16.1 nM | 5040 nM | 82.1 nM
3 | Cc1ccc(Nc2ccc3ncn(-c4ccc(C(C)O)c(-n5nc(C(F)(F)F)c6c5CCNC6)n4)c3c2)nn1 (stereo not drawn) [Example 98, 1-[6-[6-[(6-Methylpyridazin-3-yl)amino]benzimidazol-1-yl]-2-[3-(trifluoromethyl)-4,5,6,7-tetrahydropyrazolo[4,3-c]pyridin-1-yl]-3-pyridyl]ethanol] | 13.4 nM | 5 nM | 4.2 nM
4 | Cc1ccc(Nc2cc3c(cc2F)ncn3-c2ccc(C(C)O)c(-n3nc(C#N)cc3C)n2)nn1 (stereo not drawn) [Example 94, 1-[6-[5-Fluoro-6-[(6-methylpyridazin-3-yl)amino]benzimidazol-1-yl]-3-(1-hydroxyethyl)-2-pyridyl]-5-methyl-pyrazole-3-carbonitrile] | 54.9 nM | 24 nM | 16.6 nM
5 | COc1cc2ncn(-c3ccc(CO)c(NCCCCCO)n3)c2cc1OC [Example 32, 5-((6-(5,6-Dimethoxy-1H-benzo[d]imidazol-1-yl)-3-(hydroxymethyl)pyridin-2-yl)amino)pentan-1-ol] | 1400 nM | 373 nM | 259 nM
6 | Cc1ccc(Nc2ccc3ncn(-c4ccc(C(C)O)c(NCC5(C#N)CC5)n4)c3c2)nn1 (stereo not drawn) [Example 117, 1-[[[3-(1-Hydroxyethyl)-6-[6-[(6-methylpyridazin-3-yl)amino]benzimidazol-1-yl]-2-pyridyl]amino]methyl]cyclopropanecarbonitrile; formic acid] | 365 nM | 3530 nM | 1020 nM
7 | Cc1cc(C#N)nn1-c1nc(-n2cnc3cc(N4CC[C@@H](O)C4)ccc32)ccc1C(C)O (stereo partly drawn) [Example 77, 1-[3-(1-Hydroxyethyl)-6-[5-[(3R)-3-hydroxypyrrolidin-1-yl]benzimidazol-1-yl]-2-pyridyl]-5-methyl-pyrazole-3-carbonitrile; formic acid] | 15.7 nM | 28 nM | 10.1 nM
8 | COc1cc2ncn(-c3ccc([C@@H](C)O)c(-c4ccc(C#N)cc4)n3)c2cc1OC [Example 40, (R)-4-(6-(5,6-Dimethoxy-1H-benzo[d]imidazol-1-yl)-3-(1-hydroxyethyl)pyridin-2-yl)benzonitrile] | 1660 nM | 1030 nM | 517 nM
9 | Cc1ccc(Nc2ccc3c(c2)ncn3-c2ccc(C(C)O)c(-c3cn(C(F)F)nc3C)n2)nn1 (stereo not drawn) [Example 149, 1-[2-[1-(Difluoromethyl)-3-methyl-pyrazol-4-yl]-6-[5-[(6-methylpyridazin-3-yl)amino]benzimidazol-1-yl]-3-pyridyl]ethanol] | 1.9 nM | 1290 nM | 8.4 nM
10 | Cc1ccc(Nc2ccc3c(c2)ncn3-c2ccc(C(C)O)c(-n3nc(S(C)(=O)=O)cc3C)n2)nn1 (stereo not drawn) [Example 145, 1-[2-(5-Methyl-3-methylsulfonyl-pyrazol-1-yl)-6-[5-[(6-methylpyridazin-3-yl)amino]benzimidazol-1-yl]-3-pyridyl]ethanol] | 1.4 nM | 552 nM | 9 nM
11 | Cc1ccc(Nc2ccc3ncn(-c4ccc(C(C)O)c(-n5nc(C)cc5C)n4)c3c2)nn1 (stereo not drawn) [Example 107, 1-[2-(3,5-Dimethylpyrazol-1-yl)-6-[6-[(6-methylpyridazin-3-yl)amino]benzimidazol-1-yl]-3-pyridyl]ethanol; formic acid] | 3500 nM | 2610 nM | 1370 nM
12 | Cc1cnc(Nc2ccc3c(c2)ncn3-c2ccc(C(C)O)c(-n3nc(C#N)cc3C)n2)cn1 (stereo not drawn) [Example 82, 1-[3-(1-Hydroxyethyl)-6-[5-[(5-methylpyrazin-2-yl)amino]benzimidazol-1-yl]-2-pyridyl]-5-methyl-pyrazole-3-carbonitrile] | 2.4 nM | 5 nM | 2.2 nM

Other lines, results leading:

Row | IC50 (SIK3) | IC50 (SIK1) | IC50 (SIK2) | Structure (SMILES)
13 | 0.7 nM | 9 nM | 0.3 nM | Cc1ccc(Nc2ccc3c(c2)ncn3-c2ccc(C(C)O)c(-n3nc(C(F)(F)F)c4c3CCN(C)C4)n2)nn1 (stereo not drawn) [Example 171, 1-[6-[5-[(6-Methylpyridazin-3-yl)amino]benzimidazol-1-yl]-2-[5-methyl-3-(trifluoromethyl)-6,7-dihydro-4H-pyrazolo[4,3-c]pyridin-1-yl]-3-pyridyl]ethanol; formic acid]
14 | 46.1 nM | 1440 nM | 174 nM | Cc1ccc(Nc2ccc3ncn(-c4ccc([C@@H](C)O)c(-n5nc(C#N)cc5C)n4)c3c2)nn1 [Example 247, 1-[3-[(1R)-1-hydroxyethyl]-6-[6-[(6-methylpyridazin-3-yl)amino]benzimidazol-1-yl]-2-pyridyl]-5-methyl-pyrazole-3-carbonitrile]
15 | 0.8 nM | 88 nM | 1.5 nM | Cc1cc(OC(F)F)nn1-c1nc(-n2cnc3cc(Nc4ccc(C(F)F)nn4)ccc32)ccc1C(C)O (stereo not drawn) [Example 367, 1-[2-[3-(difluoromethoxy)-5-methylpyrazol-1-yl]-6-[5-[[6-(difluoromethyl)pyridazin-3-yl]amino]benzimidazol-1-yl]pyridin-3-yl]ethanol]
16 | 433 nM | 145 nM | 84.7 nM | Cc1cc(C(F)F)nn1-c1nc(-n2cnc3cc(F)c(Nc4ccc(Cl)nn4)cc32)ccc1C(C)O (stereo not drawn) [Example 371, 1-[6-[6-[(6-chloropyridazin-3-yl)amino]-5-fluoro-benzimidazol-1-yl]-2-[3-(difluoromethyl)-5-methyl-pyrazol-1-yl]-3-pyridyl]ethanol]
17 | 34.4 nM | 9950 nM | 141 nM | Cc1ccc(Nc2ccc3c(c2)ncn3-c2ccc(C(C)O)c(-c3ccoc3C#N)n2)nn1 (stereo not drawn) [Example 204, 3-[3-(1-Hydroxyethyl)-6-[5-[(6-methylpyridazin-3-yl)amino]benzimidazol-1-yl]-2-pyridyl]furan-2-carbonitrile]
18 | 2.6 nM | 961 nM | 7.6 nM | Cc1cc(C(F)F)nn1-c1nc(-n2cnc3cc(Nc4cc5c(nn4)CCOC5)ccc32)ccc1CO [Example 317, [2-[3-(difluoromethyl)-5-methyl-pyrazol-1-yl]-6-[5-(7,8-dihydro-5H-pyrano[4,3-c]pyridazin-3-ylamino)benzimidazol-1-yl]-3-pyridyl]methanol]
19 | 15.9 nM | 800 nM | 6.1 nM | Cc1ccc(Nc2cc3ncn(-c4ccc(C(C)O)c(-n5nc(C#N)cc5C)n4)c3cc2C(F)(F)F)nn1 (stereo not drawn) [Example 275, 1-[3-(1-hydroxyethyl)-6-[5-[(6-methylpyridazin-3-yl)amino]-6-(trifluoromethyl)benzimidazol-1-yl]-2-pyridyl]-5-methyl-pyrazole-3-carbonitrile]
20 | 17.5 nM | 2830 nM | 94.5 nM | Cc1ccc(Nc2ccc3c(c2)ncn3-c2ccc(C(C)O)c(N3CC(C)(C#N)C3)n2)nn1 (stereo not drawn) [Example 183, 1-[3-(1-Hydroxyethyl)-6-[5-[(6-methylpyridazin-3-yl)amino]benzimidazol-1-yl]-2-pyridyl]-3-methyl-azetidine-3-carbonitrile]
21 | 12.4 nM | 81 nM | 16.6 nM | Cc1cc(C#N)nn1-c1nc(-n2cnc3cc(NC(=O)C4(F)CC4)ccc32)ccc1C(C)O (stereo not drawn) [Example 380, N-[1-[6-(3-cyano-5-methyl-pyrazol-1-yl)-5-(1-hydroxyethyl)-2-pyridyl]benzimidazol-5-yl]-1-fluoro-cyclopropanecarboxamide]
22 | 321 nM | 111 nM | 62.1 nM | Cc1cc(C#N)nn1-c1nc(-n2cnc3cc(CN4CCCS4(=O)=O)ccc32)ccc1C(C)O (stereo not drawn) [Example 201, 1-[6-[5-[(1,1-Dioxo-1,2-thiazolidin-2-yl)methyl]benzimidazol-1-yl]-3-(1-hydroxyethyl)-2-pyridyl]-5-methyl-pyrazole-3-carbonitrile]
23 | 3.4 nM | 3 nM | 1.6 nM | COc1nn(C)cc1-c1ccc2c(c1)ncn2-c1ccc(C(C)O)c(-n2nc(C#N)cc2C)n1 (stereo not drawn) [Example 334, 1-[3-(1-hydroxyethyl)-6-[5-(3-methoxy-1-methyl-pyrazol-4-yl)benzimidazol-1-yl]-2-pyridyl]-5-methyl-pyrazole-3-carbonitrile]
24 | 4.7 nM | 249 nM | 2 nM | COC(C)Cn1cc(-c2nc(-n3cnc4cc(Nc5ccc(C)nn5)ccc43)ccc2C(C)O)c(C)n1 (stereo not drawn) [Example 278, 1-[2-[1-(2-methoxypropyl)-3-methyl-pyrazol-4-yl]-6-[5-[(6-methylpyridazin-3-yl)amino]benzimidazol-1-yl]-3-pyridyl]ethanol]
25 | 3 nM | 1510 nM | 27.4 nM | Cc1ccc(Nc2ccc3c(c2)ncn3-c2ccc(C(C)O)c(N3CCC(C(F)F)C3)n2)nn1 (stereo not drawn) [Example 298, 1-[2-[3-(difluoromethyl)pyrrolidin-1-yl]-6-[5-[(6-methylpyridazin-3-yl)amino]benzimidazol-1-yl]-3-pyridyl]ethanol]
